Among the data in ChEMBL document CHEMBL4627413, “Targeted Delivery of Antisense Oligonucleotides Using Neurotensin Peptides” (J Med Chem, 2020) are Vmax, Km and Drug uptake values, retold here.

Data set [1] addresses T1, Sortilin (Homo sapiens, UniProt Q99523).
T1 sequence (Q99523 whole entry): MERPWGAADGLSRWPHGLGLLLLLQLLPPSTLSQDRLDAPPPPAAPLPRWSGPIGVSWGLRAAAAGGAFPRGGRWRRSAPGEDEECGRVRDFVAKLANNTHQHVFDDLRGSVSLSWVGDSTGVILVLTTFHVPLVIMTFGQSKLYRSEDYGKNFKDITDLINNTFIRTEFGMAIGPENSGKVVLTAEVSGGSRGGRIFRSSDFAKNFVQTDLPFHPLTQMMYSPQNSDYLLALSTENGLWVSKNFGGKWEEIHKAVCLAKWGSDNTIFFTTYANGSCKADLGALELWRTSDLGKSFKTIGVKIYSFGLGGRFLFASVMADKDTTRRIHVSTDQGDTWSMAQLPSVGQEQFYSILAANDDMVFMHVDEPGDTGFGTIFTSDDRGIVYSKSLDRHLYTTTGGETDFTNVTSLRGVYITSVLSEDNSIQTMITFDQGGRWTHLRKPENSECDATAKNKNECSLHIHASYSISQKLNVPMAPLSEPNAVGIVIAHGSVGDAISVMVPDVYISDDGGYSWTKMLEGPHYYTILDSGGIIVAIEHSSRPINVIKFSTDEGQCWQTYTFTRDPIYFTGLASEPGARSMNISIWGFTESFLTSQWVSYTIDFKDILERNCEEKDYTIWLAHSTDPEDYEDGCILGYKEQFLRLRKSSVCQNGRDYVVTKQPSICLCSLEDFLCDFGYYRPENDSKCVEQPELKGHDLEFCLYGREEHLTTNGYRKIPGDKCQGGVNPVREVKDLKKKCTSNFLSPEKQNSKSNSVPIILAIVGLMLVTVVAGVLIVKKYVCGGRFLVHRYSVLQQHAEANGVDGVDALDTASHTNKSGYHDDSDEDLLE
Description: Substrate activity at human SORT1 expressed in HEK293 cells assessed as compound uptake incubated for 2 hrs by flow cytometry. It counts as ADME, cell-based. To be noted: hek293, 2 h. For orientation: Flow cytometry measures light scatter and fluorescence of single cells or particles in a stream.

Data set [2] can be described thus: Drug uptake in HEK293 cells incubated for 2 hrs by flow cytometry. It counts as ADME, cell-based. The settings on record: human, hek293, 2 h.

Each structure is given as a SMILES string.

For the compound `CC[C@H](C)[C@H](NC(=O)[C@H](Cc1ccc(O)cc1)NC(=O)[C@@H]1CCCN1C(=O)[C@H](CCCNC(=N)N)NC(=O)[C@H](CCCNC(=N)N)NC(=O)[C@@H]1CCCN1C(=O)[C@H](CCCCN)NC(=O)[C@H](CC(N)=O)NC(=O)[C@H](CCC(=O)O)NC(=O)[C@H](Cc1ccc(O)cc1)NC(=O)[C@H](CC(C)C)NC(=O)CNC(=O)[C@@H]1CCCN1C(=O)[C@H](CO)NC(=O)[C@H](CO)NC(=O)CNC(=O)[C@H](C)NC(=O)[C@@H]1CCCN1C(=O)[C@@H]1CCCN1C(=O)[C@@H]1CCCN1C(=O)[C@@H](N)CCCCNC(=O)Cn1nnc2c1CC[C@H]1[C@@H](CC2)[C@H]1COC(=O)NCCOCCOCCNC(=O)CCCCC[N+]1=C(/C=C/C=C2/N(C)c3ccccc3C2(C)C)C(C)(C)c2ccccc21)C(=O)N[C@@H](CC(C)C)C(=O)O.[Cl-]`, the Vmax in data set [1] worked out at 1367.
In the case of `CC[C@H](C)[C@H](NC(=O)[C@H](Cc1ccc(O)cc1)NC(=O)[C@@H]1CCCN1C(=O)[C@H](CCCNC(=N)N)NC(=O)[C@H](CCCNC(=N)N)NC(=O)[C@@H]1CCCN1C(=O)[C@H](CCCCN)NC(=O)[C@H](CC(N)=O)NC(=O)[C@H](CCC(=O)O)NC(=O)[C@H](Cc1ccc(O)cc1)NC(=O)[C@H](CC(C)C)NC(=O)[C@@H](N)CCCCNC(=O)Cn1nnc2c1CC[C@H]1[C@@H](CC2)[C@H]1COC(=O)NCCOCCOCCNC(=O)CCCCC[N+]1=C(/C=C/C=C2/N(C)c3ccccc3C2(C)C)C(C)(C)c2ccccc21)C(=O)N[C@@H](CC(C)C)C(=O)O.[Cl-]`, in data set [1], the Km (in general, the substrate concentration at which the rate is half of its maximum) came to 0.08 µM and the Vmax is 1397. Besides, the Drug uptake entry in data set [2] is given as “Not Active”.
